Laboratory results: US20250179509A1, “NATIVE DELIVERY OF BIOMOLECULES INTO PLANT CELLS USING IONIC COMPLEXES WITH CELL-PENETRATING PEPTIDES” (BASF Plant Science Company GmbH, priority 2018, published 2025)

Assays:
rice callus cells = test: CLSM observation of intracellular uptake and distribution of Citrine after vacuum/pressure infiltration; assay type: cell-based, Oryza sativa, cv. Nipponbare; conditions: for distribution of Citrine in callus cell: 5-day callus cell, 72-hours incubation, FM 4-64 stain, 3D images and optical sections
Protocol: Mature dry seeds of Oryza sativa, cv. Nipponbare (O. sativa) were surface-sterilized with 70% ethanol (v/v) for 1 min, followed by 30 min in 50% (v/v) commercial bleach with rotation at 20 rpm. Seeds were then washed 8-10 times with sterile distilled water and dried on autoclaved Kimwipes (3 mm) for 5 min. For callus induction, sixteen seeds were inoculated petri plate on callus induction medium (N6D) and incubated at 30° C. with continuous light in a plant bio-incubator (TOMY CLE-303 cultivation chamber Tokyo, Japan). N6D was prepared using basal 30 g/L […], 0.3 g/L casamino acid, 2.8 g/L L-proline, 2 mg/L 2,4-dichlorophenoxyacetic acid (2,4-D), 4.0 g/L CHO (N6) basal salt mix, gelled with 4 g/L phytagel and pH adjusted to 5.8 before autoclaving. After 5-day cultivation, the callus was cut into approximately four equal parts. This callus was used as the 5-day callus in this work. On the other hand, after 21-day cultivation, the self-shedding callus was collected and used as the 21-day callus. For the callus regeneration test, the callus was cut to small pieces in different sizes, then transferred onto a regeneration medium and incubated at 30° C. with continuous light for 7 days. […] The regeneration medium was prepared based on using 4 g/L MS powder with vitamin, supplied with 30 g/L sorbitol, 30 g/L sucrose, 4 g/L casamino acid, 2 mg/L 2,4-D and 2 mg/L 1-Naphthaleneacetic acid (NAA), gelled with 4 g/L phytagel and pH was adjusted to 5.8 before autoclaving. The chemicals used in this research are purchased from Sigma (Sigma-Aldrich, MO, USA) and Wako (Wako, Pure Chemical, Tokyo, Japan).
(§1) 10 mg rice callus (5-day or 21-day) was immersed in 100 μL of fresh prepared complex solutions in a screw cap tube. Subsequently depressurized the solution at −0.08 MPa for 1 min and compressed at +0.08 MPa for 1 min. After this treatment, the callus was transferred onto the N6D medium, and incubated at 30° C. in the dark until use.
Confocal laser scanning microscopy (CLSM, ZeissLSM 700, Carl Zeiss, Oberkochen, Germany) was used to evaluate the intracellular uptake of CPP-FP-Citrine every 24 hours. Before the observation by CLSM, the callus on N6D was transferred into a 1.5 mL Eppendorf tube and washed thoroughly with Milli-q water contains 0.1% tween 20 for five times to remove the Citrine on cell surface. Thereafter, the callus was cut into tiny pieces and mounted on glass slides, then covered with coverslips. CPP-FP-Citrine was detected by setting the excitation at 488 nm and emission in a range of 505-600 nm. For distinguish plasma membrane region and cytoplasm region, the callus was additionally incubated with FM4-64 (20 µM, 20 min at RT) for cell membrane stain, and detected by setting the excitation at 405 nm and emission at 560-700. Furthermore, quantification of the intracellular Citrine by western blot immunoassay. After 72-hour post-infiltration, the protein was extracted from rice callus. The rice callus was frozen with liquid nitrogen, and then grinding in a mortar into powder. 50 μl of 10 mM Tris-HCL buffer (pH 7.4) containing 10 μL Halt protease inhibitor cocktail (Thermo Scientific, MA, USA) was added to 0.1 g callus powder, mixed well and incubated on ice for 1 hour. After centrifuge at […], 4° C. for 20 min, the supernatant was collected and used as the cell extraction. 10 μL of the cell extraction was subjected to a 4-20% sodium dodecyl sulfate polyacrylamide electrophoresis gels (SDS-PAGE, Bio-Rad, California, USA). Proteins were then transferred onto a PVDF membranes (Bio-Rad, California, USA) using a semi-dry transfer cell (Bio-Rad, California, USA) at 10 V for 1 hour. The immunodetection of Citrine was performed with a rabbit polyclonal antibody (GFP antibody NB600-308, Novus Biologicals, Co, USA, dilution to 1:2000). IgG goat anti-rabbit antibody conjugated with horse radish peroxidase was used as a secondary antibody (goat anti-rabbit IgG H&L HRP ab6789, Abcam, Cambridge, UK, dilution to 1:20000). […]

5-day callus cell = test: Western blot quantification of Citrine extracted from rice callus; assay type: cell-based, Oryza sativa, cv. Nipponbare; conditions: 72-hour post-infiltration, with vacuum and pressure treatment, area intensity compared with positive control
Protocol: as §1
Confocal laser scanning microscopy (CLSM, ZeissLSM 700, Carl Zeiss, Oberkochen, Germany) was used to evaluate the intracellular uptake of CPP-FP-Citrine every 24 hours. Before the observation by CLSM, the callus on N6D was transferred into a 1.5 mL Eppendorf tube and washed thoroughly with Milli-q water contains 0.1% tween 20 for five times to remove the Citrine on cell surface. […] CPP-FP-Citrine was detected by setting the excitation at 488 nm and emission in a range of 505-600 nm. For distinguish plasma membrane region and cytoplasm region, the callus was additionally incubated with FM4-64 (20 µM, 20 min at RT) for cell membrane stain, and detected by setting the excitation at 405 nm and emission at 560-700. Furthermore, quantification of the intracellular Citrine by western blot immunoassay. […]
We next quantified the Citrine from the cell extraction by western blot. […] As controls, the samples with infiltration of Milli-q water and Citrine only without vacuum and pressure treatment were also analyzed (FIG. 7a). […]

[1] = Secondary structure contents of peptides (DichroWeb analysis); assay type: physicochemical; conditions: various solvents, reducing or non-reducing conditions
Protocol: FIG. 20: Secondary structure contents of BPCH7, BPLH7, and BPKH in various solvents (reducing or non-reducing conditions). Analysis was performed using DichroWeb (CONTIN, dataset 4).

rice cells = test: Delivery of DNA into rice cells by linear versus cyclic peptide; assay type: cell-based
Protocol: BP2 is a cyclic peptide due to its disulphide bond between the two cysteins. This structure improve binding to proteins, peptides and DNA and improves cell survival (reduced cell toxicity) and regeneration. These advantages of the cyclic structure were analysed by studying a linear, non-cyclic, version of BP2 with regards to its potential to delivery.

rice callus = test: Delivery of dsRed plasmid DNA into rice callus and dsRed expression; assay type: cell-based; conditions: dsRed plasmid DNA (SEQ ID NO: 1) combined with peptide, after 4 days
Protocol: CPP (BP100 KH9) and dsRed plasmid DNA (Seq ID NO: 1) or Cy3 labelled PNA (peptide nucleic acid) (1:10 molar ratio) were mixed together and incubated for 30 minutes at 4° C. After incubation the volume was made up to 100 μl with water.
Callus from 5-7 days old rice seeds were used for the experiments. To 10 mg of callus, CPP/DNA or CPP/PNA mixture was added and vacuum infiltrated for 15 mins, washed with distilled water and plated on N6 medium.

Sequence	distribution of Citrine in callus cell (rice callus cells)	Citrine fluorescence inside of the cells observed, time after infiltration (rice callus cells; 5-day callus cells, P/C ratio of 100)	Citrine delivered (5-day callus cell)	secondary structure ([1]; listed as BP2)	secondary structure [1]	activity in delivery DNA into rice cells (rice cells)	Citrine fluorescence inside of the cells observed, time after infiltration (rice callus cells; 5-day callus cells, P/C ratio of 1)	Citrine fluorescence inside of the cells first observed, time after infiltration (rice callus cells; 5-day callus cells, P/C ratio of 10)	Citrine florescence observed, time after infiltration (rice callus cells; 21-day rice callus, P/C ratio of 10)	dsRed expression (red fluorescence) (rice callus)
KKLFKKILKYLHHCRGHTVHSHHHCIR (BP2 amino acid sequence, synthetic) [BP100CH7]	located in cell membrane and the cytoplasm regions of the cells	72 h	0.043 ng/mg callus	higher helix and strand order	–	–	–	–	–	–
KKLFKKILKYLHHCRGHTVHSHHHCIR [LH7, linear, non-cyclic version of BP2, reference compound]	–	–	–	–	higher degree of unordered structure	significantly lower activity	–	–	–	–
KKLFKKILKYLKHKHKHKHKHKHKHKHKH (BP1 amino acid sequence, synthetic) [BP100 (KH)9]	located in cell membrane and the cytoplasm regions of the cells	–	0.042 ng/mg callus	–	higher helix and strand order	–	72 h	48 h	48 h	visible red fluorescence
